The text below walks through data of patent publication US6525022B1, “Receptor specific atrial natriuretic peptides” (Genentech, Inc., priority 1993, dated 2003).

Read-outs that look alike come from different tables or passages of the source. Where a SMILES comes first, the peptide text is derived from it. Bridges are numbered along the chain shown (N, C = ends). Where no end group is shown, it is not given here. [ ]: non-standard residue; d: D form. Cha = N[C@@H](CC1CCCCC1)C(=O)O; hCys = N[C@@H](CCS)C(=O)O

Data set [1] has as its target human NEP (hNEP), endopeptidase 24.11 (Homo sapiens, UniProt P08473). Nature of the data set: Degradation of ANF variants by human NEP, half-life by HPLC.
Experimental: The half-life of various ANF variants was measured according to the following procedure.
ANF Solution: An accurately weighed amount of ANF or variant thereof was diluted with HEPES buffer (5 ml of 1 M HEPES Buffer and 0.1 ml of Tween 20 diluted to a 100 ml volume with DI water) to make a 0.5 mg/ml solution.
hNEP/HEPES Solution: 7.5 μl of a 1 mg/ml solution of hNEP (see U.S. Pat. No. 4,960,700) is dissolved in 992.5 μl of HEPES buffer (as described above) and vortex mixed. The resulting mixture is stored in a silylated Eppendorf tube and periodically checked for activity against an ANF peptide standard.
Assay conditions: 150 μl of an ANF solution in the HEPES buffer is diluted with 820 μl HEPES buffer and vortex mixed (1 sec). Careful note of the time is taken as 30 μl of the hNEP/HEPES solution is added and the solution is vortex mixed for 1 sec. and analyzed by periodic removal of constant volume aliquots by the HPLC autosampler. A 2.5 cm×50 cm, C-18 reversed-phase column (15 micron, 300 Å]) was used and elution was achieved by using a shallow gradient of increasing acetonitrile. The elution conditions consisted of a 10% to 50% acetonitrile (containing 0.1% TFA) gradient at 0.5% min.^−1. The aqueous phase was 0.1% TFA in water. The peak area of the ANP peptide is recorded at these periodic intervals and a half-life is determined from these values.
The target in data set [2] is T1, human natriuretic peptide receptor-A (human, UniProt P16066 33-1061).
T1 construct: whole, on cells; also called hNPR-A; human NPR-A
T1 sequence (looked up): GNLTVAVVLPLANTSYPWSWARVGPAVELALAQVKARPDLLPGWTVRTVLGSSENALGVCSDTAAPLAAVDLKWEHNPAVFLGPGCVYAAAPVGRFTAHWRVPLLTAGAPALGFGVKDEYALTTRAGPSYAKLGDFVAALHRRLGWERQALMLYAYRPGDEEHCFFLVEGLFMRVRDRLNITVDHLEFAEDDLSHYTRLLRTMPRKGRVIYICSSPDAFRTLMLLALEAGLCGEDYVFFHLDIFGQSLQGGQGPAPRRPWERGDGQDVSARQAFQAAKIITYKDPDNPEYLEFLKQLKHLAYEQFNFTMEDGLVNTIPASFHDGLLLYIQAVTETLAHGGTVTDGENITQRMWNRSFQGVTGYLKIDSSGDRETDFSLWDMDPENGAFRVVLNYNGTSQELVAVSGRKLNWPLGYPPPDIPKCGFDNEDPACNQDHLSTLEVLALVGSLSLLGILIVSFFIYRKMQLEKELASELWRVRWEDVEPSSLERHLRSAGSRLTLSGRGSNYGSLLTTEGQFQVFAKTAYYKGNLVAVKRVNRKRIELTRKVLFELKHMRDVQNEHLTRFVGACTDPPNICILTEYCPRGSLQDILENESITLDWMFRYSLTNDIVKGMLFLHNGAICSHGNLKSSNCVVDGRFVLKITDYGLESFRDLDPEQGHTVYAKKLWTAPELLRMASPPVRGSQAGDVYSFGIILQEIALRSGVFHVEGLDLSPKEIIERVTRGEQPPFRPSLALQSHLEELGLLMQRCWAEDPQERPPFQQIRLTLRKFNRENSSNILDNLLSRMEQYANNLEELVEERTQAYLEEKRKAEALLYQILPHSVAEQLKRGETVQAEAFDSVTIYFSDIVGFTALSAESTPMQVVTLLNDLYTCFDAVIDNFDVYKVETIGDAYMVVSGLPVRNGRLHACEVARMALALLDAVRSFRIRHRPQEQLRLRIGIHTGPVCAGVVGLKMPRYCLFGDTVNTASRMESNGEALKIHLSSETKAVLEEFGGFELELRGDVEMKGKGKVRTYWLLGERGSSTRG
In words: competition binding, Table I; tracer and receptor format not given.

Data set [3] concerns the target T2, human natriuretic peptide clearance receptor-C (human, UniProt P17342 27-541).
T2 construct: whole, on cells; also called hNPR-C; human NPR-C
T2 sequence (looked up): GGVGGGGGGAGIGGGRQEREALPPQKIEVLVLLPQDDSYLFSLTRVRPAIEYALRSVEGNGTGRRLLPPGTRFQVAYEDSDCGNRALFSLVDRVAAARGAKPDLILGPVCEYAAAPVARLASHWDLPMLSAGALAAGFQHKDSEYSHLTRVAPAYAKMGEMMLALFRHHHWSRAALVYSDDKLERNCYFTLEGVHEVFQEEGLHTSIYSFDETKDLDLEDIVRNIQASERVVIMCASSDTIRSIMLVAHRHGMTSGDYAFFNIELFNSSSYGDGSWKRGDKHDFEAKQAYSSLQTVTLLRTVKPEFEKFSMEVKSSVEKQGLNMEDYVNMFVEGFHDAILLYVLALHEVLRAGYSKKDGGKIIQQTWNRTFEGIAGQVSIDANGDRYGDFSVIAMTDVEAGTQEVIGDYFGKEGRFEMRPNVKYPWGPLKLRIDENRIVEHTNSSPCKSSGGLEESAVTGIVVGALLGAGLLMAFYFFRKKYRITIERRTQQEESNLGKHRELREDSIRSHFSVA
The data set is described as above.

Setting [4] is: isolated human NEP (endopeptidase 24.11) in HEPES buffer, Half-Life (min.), FIG. 7: ANF variants 32 nM/ml, NEP 0.45 μg/ml.
Where [5] appears, read: isolated human NEP (endopeptidase 24.11) in HEPES buffer, Half-Life (min.), FIG. 6: ANF variants 0.5 mg/ml, NEP 0.225 mg/ml.

Sequence of human NEP (hNEP), endopeptidase 24.11 (P08473 whole entry): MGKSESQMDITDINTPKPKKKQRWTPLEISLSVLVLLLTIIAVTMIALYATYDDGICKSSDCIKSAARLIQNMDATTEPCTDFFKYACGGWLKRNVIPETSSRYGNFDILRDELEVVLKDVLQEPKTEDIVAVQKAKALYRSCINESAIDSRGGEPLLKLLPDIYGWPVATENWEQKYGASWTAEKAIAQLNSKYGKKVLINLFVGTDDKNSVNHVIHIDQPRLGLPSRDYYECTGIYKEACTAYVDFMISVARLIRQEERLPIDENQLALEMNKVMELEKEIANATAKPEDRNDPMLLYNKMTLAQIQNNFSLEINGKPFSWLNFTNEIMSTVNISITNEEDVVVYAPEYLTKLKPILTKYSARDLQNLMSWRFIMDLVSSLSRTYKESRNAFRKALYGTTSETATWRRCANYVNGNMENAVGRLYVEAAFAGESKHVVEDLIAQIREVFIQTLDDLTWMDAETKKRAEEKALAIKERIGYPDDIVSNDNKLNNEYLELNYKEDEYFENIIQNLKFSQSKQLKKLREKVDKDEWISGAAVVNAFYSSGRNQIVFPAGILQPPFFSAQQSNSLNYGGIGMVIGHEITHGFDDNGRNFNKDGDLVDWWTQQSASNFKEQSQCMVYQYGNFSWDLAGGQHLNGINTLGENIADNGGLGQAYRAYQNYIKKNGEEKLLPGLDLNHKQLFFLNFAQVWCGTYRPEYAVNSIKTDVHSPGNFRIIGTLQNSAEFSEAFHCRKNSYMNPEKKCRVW

The term half-life denotes the time in which the quantity being followed falls by half. Molecule `CC[C@H](C)[C@@H]1NC(=O)[C@H](CCCNC(=N)N)NC(=O)[C@H](CC(=O)O)NC(=O)[C@H]([C@@H](C)CC)NC(=O)[C@H](CO)NC(=O)CNC(=O)[C@H]([C@@H](C)O)NC(=O)[C@H](Cc2ccccc2)NC(=O)[C@@H](NC(=O)[C@H](CO)NC(=O)[C@H](CO)NC(=O)[C@H](CCCNC(=N)N)NC(=O)[C@H](CCCNC(=N)N)NC(=O)[C@H](CC(C)C)NC(=O)[C@@H](N)CO)CSSC[C@@H](C(=O)N[C@@H](CC(N)=O)C(=O)N[C@@H](CO)C(=O)N[C@@H](Cc2ccccc2)C(=O)N[C@@H](CCCNC(=N)N)C(=O)N[C@@H](Cc2ccc(O)cc2)C(=O)O)NC(=O)CNC(=O)[C@H](CC(C)C)NC(=O)CNC(=O)[C@H](CO)NC(=O)[C@@H]2CCCN2C(=O)[C@H](C)NC(=O)[C@H](CCCNC(=N)N)NC1=O` [ANF 31] (H-SLRRSSCFTGSIDRIRAPSGLGCNSFRY-OH; disulfide 7-23; C-terminus assumed) displayed a half-life at 32 nM/ml in data set [1] (setting [4]) of 2.97 h.

As for `CC[C@H](C)[C@@H]1NC(=O)[C@H](CCCNC(=N)N)NC(=O)[C@H](CC(=O)O)NC(=O)[C@H]([C@@H](C)CC)NC(=O)[C@H](CCCNC(=N)N)NC(=O)CNC(=O)CNC(=O)[C@H](Cc2ccccc2)NC(=O)[C@@H](NC(=O)[C@H](CO)NC(=O)[C@H](CO)NC(=O)[C@H](CCCNC(=N)N)NC(=O)[C@H](CCCNC(=N)N)NC(=O)[C@H](CC(C)C)NC(=O)[C@H](CO)NC(=O)[C@H](CCCNC(=N)N)NC(=O)[C@@H]2CCCN2C(=O)[C@H](C)NC(=O)[C@@H](N)[C@@H](C)O)CSSC[C@@H](C(=O)N[C@@H](CC(N)=O)C(=O)N[C@@H](CO)C(=O)N[C@@H](Cc2ccccc2)C(=O)N[C@@H](CCCNC(=N)N)C(=O)N[C@@H](Cc2ccc(O)cc2)C(=O)O)NC(=O)CNC(=O)[C@H](CC(C)C)NC(=O)CNC(=O)[C@H](CO)NC(=O)[C@H](CCC(N)=O)NC(=O)[C@H](C)NC(=O)[C@H](CCCNC(=N)N)NC1=O` [ANF 23] (H-TAPRSLRRSSCFGGRIDRIRAQSGLGCNSFRY-OH; disulfide 11-27), the half-life at 0.5 mg/ml in data set [1] came to 12.3 h. In the case of `CC[C@H](C)[C@@H]1NC(=O)[C@H](CCCNC(=N)N)NC(=O)[C@H](CC(=O)O)NC(=O)[C@H](CCSC)NC(=O)[C@@H]2CCCN2C(=O)[C@H](CCCNC(=N)N)NC(=O)[C@H](CCC(=O)O)NC(=O)[C@H](Cc2ccccc2)NC(=O)[C@@H](NC(=O)[C@H](CO)NC(=O)[C@H](CO)NC(=O)[C@H](CCCNC(=N)N)NC(=O)[C@H](CCCNC(=N)N)NC(=O)[C@H](CC(C)C)NC(=O)[C@@H](N)CO)CSSC[C@@H](C(=O)N[C@@H](CC(N)=O)C(=O)N[C@@H](CO)C(=O)N[C@@H](Cc2ccccc2)C(=O)N[C@@H](CCCNC(=N)N)C(=O)N[C@@H](Cc2ccc(O)cc2)C(=O)O)NC(=O)CNC(=O)[C@H](CC(C)C)NC(=O)CNC(=O)[C@H](CO)NC(=O)[C@H](CCC(N)=O)NC(=O)[C@H](C)NC(=O)CNC1=O` [ANF 51] (H-SLRRSSCFERPMDRIGAQSGLGCNSFRY-OH; disulfide 7-23; C-terminus assumed), the half-life at 32 nM/ml in data set [1] (isolated human NEP (endopeptidase 24.11) in HEPES buffer, Half-life, FIG. 8: 32 nM/ml peptide, 0.075 μg/ml NEP) is 32.1 h; in data set [1] (isolated human NEP (endopeptidase 24.11) in HEPES buffer, Half-life, FIG. 8: 32 nM/ml peptide, 0.15 μg/ml NEP) it was 4.48 h. `CC[C@H](C)[C@@H]1NC(=O)[C@H](CO)NC(=O)[C@H](CC(=O)O)NC(=O)[C@H]([C@@H](C)CC)NC(=O)[C@H](CCCNC(=N)N)NC(=O)CNC(=O)CNC(=O)[C@H](Cc2ccccc2)NC(=O)[C@@H](NC(=O)[C@H](CO)NC(=O)[C@H](CO)NC(=O)[C@H](CCCNC(=N)N)NC(=O)[C@H](CCCNC(=N)N)NC(=O)[C@H](CC(C)C)NC(=O)[C@@H](N)CO)CSSC[C@@H](C(=O)N[C@@H](CC(N)=O)C(=O)N[C@@H](CO)C(=O)N[C@@H](Cc2ccccc2)C(=O)N[C@@H](CCCNC(=N)N)C(=O)N[C@@H](Cc2ccc(O)cc2)C(=O)O)NC(=O)CNC(=O)[C@H](CC(C)C)NC(=O)CNC(=O)[C@H](CO)NC(=O)[C@H](CCC(N)=O)NC(=O)[C@H](C)NC(=O)[C@H](CCCNC(=N)N)NC1=O` [ANF 25] (H-SLRRSSCFGGRIDSIRAQSGLGCNSFRY-OH; disulfide 7-23 (inferred); N-terminus and C-terminus assumed): in data set [1] (setting [4]), the half-life at 32 nM/ml came out at 3.32 h. The same measure, in the same setting: the figure for `CC[C@H](C)[C@@H]1NC(=O)[C@H](CCCNC(=N)N)NC(=O)[C@H](CC(=O)O)NC(=O)[C@H]([C@@H](C)CC)NC(=O)[C@H](CO)NC(=O)CNC(=O)[C@H]([C@@H](C)O)NC(=O)[C@H](CC2CCCCC2)NC(=O)[C@@H](NC(=O)[C@H](CO)NC(=O)[C@H](CO)NC(=O)[C@H](CCCNC(=N)N)NC(=O)[C@H](CCCNC(=N)N)NC(=O)[C@H](CC(C)C)NC(=O)[C@@H](N)CO)CSSC[C@@H](C(=O)N[C@@H](CC(N)=O)C(=O)N[C@@H](CO)C(=O)N[C@@H](Cc2ccccc2)C(=O)N[C@@H](CCCNC(=N)N)C(=O)N[C@@H](Cc2ccc(O)cc2)C(=O)O)NC(=O)CNC(=O)[C@H](CC(C)C)NC(=O)CNC(=O)[C@H](CO)NC(=O)[C@H](CCC(N)=O)NC(=O)[C@H](C)NC(=O)[C@H](CCCNC(=N)N)NC1=O` [ANF 79] (H-SLRRSSC[Cha]TGSIDRIRAQSGLGCNSFRY-OH; disulfide 7-23; C-terminus assumed) is 7.95 h. `CC[C@H](C)[C@@H]1NC(=O)[C@H](CCCNC(=N)N)NC(=O)[C@H](CC(=O)O)NC(=O)[C@H](CCSC)NC(=O)[C@H](CO)NC(=O)CNC(=O)[C@H]([C@@H](C)O)NC(=O)[C@H](Cc2ccccc2)NC(=O)[C@@H](NC(=O)[C@H](CO)NC(=O)[C@H](CO)NC(=O)[C@H](CCCNC(=N)N)NC(=O)[C@H](CCCNC(=N)N)NC(=O)[C@H](CC(C)C)NC(=O)[C@@H](N)CO)CSSC[C@@H](C(=O)N[C@@H](CC(N)=O)C(=O)N[C@@H](CO)C(=O)N[C@@H](Cc2ccccc2)C(=O)N[C@@H](CCCNC(=N)N)C(=O)N[C@@H](Cc2ccc(O)cc2)C(=O)O)NC(=O)CNC(=O)[C@H](CC(C)C)NC(=O)CNC(=O)[C@H](CO)NC(=O)[C@H](CCC(N)=O)NC(=O)[C@H](C)NC(=O)CNC1=O` [ANF 50] (H-SLRRSSCFTGSMDRIGAQSGLGCNSFRY-OH; disulfide 7-23; C-terminus assumed): in data set [1] (setting [5]), the half-life at 0.5 mg/ml came to 1.55 h.

`CC[C@H](C)[C@@H]1NC(=O)[C@H](CCCNC(=N)N)NC(=O)[C@H](CC(=O)O)NC(=O)[C@H]([C@@H](C)CC)NC(=O)[C@H](CCCNC(=N)N)NC(=O)CNC(=O)CNC(=O)[C@H](Cc2ccccc2)NC(=O)[C@@H](NC(=O)[C@H](CO)NC(=O)[C@H](CO)NC(=O)[C@H](CCCNC(=N)N)NC(=O)[C@H](CCCNC(=N)N)NC(=O)[C@H](CC(C)C)NC(=O)[C@@H](N)CO)CSSC[C@@H](C(=O)N[C@@H](CC(N)=O)C(=O)N[C@@H](CO)C(=O)N[C@@H](Cc2ccccc2)C(=O)N[C@@H](CCCNC(=N)N)C(=O)N[C@@H](Cc2ccc(O)cc2)C(=O)O)NC(=O)CNC(=O)[C@H](CC(C)C)NC(=O)CNC(=O)[C@H](CO)NC(=O)[C@H](CCC(N)=O)NC(=O)[C@H](C)NC(=O)[C@H](CCCNC(=N)N)NC1=O` [ANF 24] showed a half-life at 0.5 mg/ml in data set [1] (setting [5]) of 10 h.

B1: ANF 74 (peptide)
peptide: SLRRSSC[dS]FTGSIDRIRAQSGLGCNSFRY
modifications: disulfide 7-24
As usually defined, the IC50 is the concentration needed to halve the response being measured. With B1, the figures for the IC50 in data set [2] and in data set [3] were 29.4 nM and 10000 nM, respectively.

B2: ANF 70 (peptide)
peptide: SLDRSSCFTGSLDSIRA[hCys]SGLGCNSFR[hCys]
modifications: disulfide 18-28, 7-23
With B2, in data set [2], the IC50 turned out to be 3.3 nM.
